For one assay, the system named is VCaP cells. Nature of the assay: Cellular growth inhibition assay for VCaP cells (CellTiter-Glo, 72 hours). The format is cell-based, human. Particulars: Homo sapiens, VCaP, 72 h. In a few lines:
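Luminescent viability signal after 72 h of compound exposure gave GI50 values by four-parameter nonlinear regression. Compounds were added in 0.5% DMSO to cells plated 24 h earlier at 5000/well in DMEM containing 10% FBS.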
(ATP-based viability assays read luminescence as a measure of living cells.)

Assay [1] concerns T-Rex 293 cell line SC3 cells having increased expression of androgen receptor protein due to exposure to doxycycline. Nature of the assay: Cellular growth inhibition assay, T-Rex 293 SC3 cells with doxycycline (CellTiter-Glo, 72 hours). The format is cell-based. The settings on record: 72 h, T-Rex 293 SC3 cells with increased androgen receptor expression due to doxycycline (10 ng/mL). An outline of the steps:
(§1)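 Doxycycline (10 ng/mL) was either included or omitted to toggle wild-type androgen receptor expression in SC3 cells, a T-Rex 293 clone, grown in stripped-serum, phenol red-free medium. After 72 hours with compound, viable cells were quantified by CellTiter-Glo 2.0.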

Assay [2] has as its system T-Rex 293 cell line SC3 cells lacking increased expression of androgen receptor protein. Nature of the assay: Cellular growth inhibition assay, T-Rex 293 SC3 cells without doxycycline (CellTiter-Glo, 72 hours). The settings on record: 72 h, T-Rex 293 cell line SC3 cells not exposed to doxycycline (lacking increased androgen receptor expression). The format is cell-based. An outline of the steps:
as §1

The test system of another assay is T47D cells. The experiment in a line: Cellular growth inhibition assay for T47D cells (CellTiter-Glo, 72 hours). The settings on record: Homo sapiens, T47D, 72 h, 72 hours treatment. In kind it is cell-based, human. An outline of the steps: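 Luminescence from CellTiter-Glo 2.0 after 72 h of compound exposure gives the viability signal. Cells grew in insulin-supplemented (0.2 units/mL) DMEM with 10% FBS and were treated one day after seeding at 0.5% DMSO. GI50 values come from four-parameter nonlinear regression.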

These results are taken from patent US20260109707A1, “HETEROBIFUNCTIONAL COMPOUNDS AND METHODS OF TREATING DISEASE” (Halda Therapeutics OpCo. Inc., priority 2022, published 2026).

One may read the GI50 as the concentration at which growth is held to half of that of the control. Read a high GI50 as less potent growth inhibition.

Take `Cc1sc2c(c1C)C(c1ccc(C#C[C@H]3C[C@@]4(CCCN(c5ccc(C(=O)N[C@H]6CC[C@H](Oc7ccc(C#N)c(Cl)c7)CC6)nn5)C4)C3)cc1)=N[C@@H](C)c1nnc(C)n1-2` [I-336]: the GI50 (with VCaP cells; in assay [1]; in assay [2]; in the assay with T47D cells) was under 500 nM each time.
`Cc1sc2c(c1C)C(c1ccc(C#C[C@H]3C[C@]4(CCCN(c5ccc(C(=O)N[C@H]6CC[C@H](Oc7ccc(C#N)c(Cl)c7)CC6)nn5)C4)C3)cc1)=N[C@@H](C)c1nnc(C)n1-2` [I-337]: the GI50 was under 500 nM in the assay on VCaP cells, under 500 nM in assay [1], 500 to 1500 nM in assay [2] and 500 to 1500 nM in the assay with T47D cells.
For the compound `Cc1sc2c(c1C)C(c1ccc(CC3CC4(CCCN(c5ccc(C(=O)N[C@H]6CC[C@H](Oc7ccc(C#N)c(Cl)c7)CC6)nn5)C4)C3)cc1)=N[C@@H](C)c1nnc(C)n1-2` (stereo partly shown) [I-338], the GI50 was under 500 nM in the assay on VCaP cells, under 500 nM in assay [1], over 3000 nM in assay [2] and 500 to 1500 nM with T47D cells.
On to `Cc1sc2c(c1C)C(c1ccc(OC[C@H]3C[C@]4(CCCN(c5ccc(C(=O)N[C@H]6CC[C@H](Oc7ccc(C#N)c(Cl)c7)CC6)nn5)C4)C3)cn1)=N[C@@H](Cc1ncco1)c1nnc(C)n1-2` [I-339], for which the GI50 (in the assay on VCaP cells; in assay [1]; in assay [2]; in the assay with T47D cells) was under 500 nM each time.
As for `Cc1sc2c(c1C)C(c1ccc(OC[C@H]3C[C@@]4(CCCN(c5ccc(C(=O)N[C@H]6CC[C@H](Oc7ccc(C#N)c(Cl)c7)CC6)nn5)C4)C3)cn1)=N[C@@H](Cc1ncco1)c1nnc(C)n1-2` [I-340], the GI50 (with VCaP cells; in assay [1]; in assay [2]; with T47D cells) was under 500 nM in each case.
Consider `Cc1sc2c(c1C)C(c1ccc([C@@H]3CCN(C(=O)[C@@H]4CCCN(c5ccc(C(=O)N[C@H]6CC[C@H](Oc7ccc(C#N)c(Cl)c7)CC6)nn5)C4)C3)cc1)=N[C@@H](Cc1ncco1)c1nnc(C)n1-2` [I-341], for which the GI50 (in the assay on VCaP cells; in assay [1]; in assay [2]; in the assay on T47D cells) was over 3000 nM throughout.
Consider `Cc1sc2c(c1C)C(c1ccc([C@H]3CCN(C(=O)[C@@H]4CCCN(c5ccc(C(=O)N[C@H]6CC[C@H](Oc7ccc(C#N)c(Cl)c7)CC6)nn5)C4)C3)cc1)=N[C@@H](Cc1ncco1)c1nnc(C)n1-2` [I-342], for which the GI50 (in the assay with VCaP cells; in assay [1]; in assay [2]; in the assay with T47D cells) was under 500 nM in each case.
For `Cc1sc2c(c1C)C(c1ccc(CN3CC(=O)N4C[C@H](c5ccc(C(=O)N[C@H]6CC[C@H](Oc7ccc(C#N)c(Cl)c7)CC6)nn5)C[C@H]4C3=O)cc1)=N[C@@H](Cc1ncco1)c1nnc(C)n1-2` [I-343], the GI50 was 1500 to 3000 nM with VCaP cells, under 500 nM in assay [1], over 3000 nM in assay [2] and over 3000 nM in the assay with T47D cells.
Turning to `Cc1sc2c(c1C)C(c1ccc([C@@H]3CCN(C(=O)[C@H]4CCCN(c5ccc(C(=O)N[C@H]6CC[C@H](Oc7ccc(C#N)c(Cl)c7)CC6)nn5)C4)C3)cc1)=N[C@@H](Cc1ncco1)c1nnc(C)n1-2` [I-344], the GI50 (with VCaP cells; in assay [1]; in assay [2]; with T47D cells) was over 3000 nM throughout.
Regarding `Cc1sc2c(c1C)C(c1ccc([C@H]3CCN(C(=O)[C@H]4CCCN(c5ccc(C(=O)N[C@H]6CC[C@H](Oc7ccc(C#N)c(Cl)c7)CC6)nn5)C4)C3)cc1)=N[C@@H](Cc1ncco1)c1nnc(C)n1-2` [I-345], the GI50 was under 500 nM with VCaP cells, under 500 nM in assay [1], over 3000 nM in assay [2] and 500 to 1500 nM with T47D cells.
For `Cc1sc2c(c1C)C(c1ccc(CN3CC(=O)N4C[C@@H](c5ccc(C(=O)N[C@H]6CC[C@H](Oc7ccc(C#N)c(Cl)c7)CC6)nn5)C[C@H]4C3=O)cc1)=N[C@@H](Cc1ncco1)c1nnc(C)n1-2` [I-346], the GI50 in the assay with VCaP cells was under 500 nM; in assay [1] it was under 500 nM; in assay [2], over 3000 nM; in the assay on T47D cells, 500 to 1500 nM.
Take `Cc1sc2c(c1C)C(c1ccc(CC3CC4(CCN(c5ccc(C(=O)N[C@H]6CC[C@H](Oc7ccc(C#N)c(Cl)c7)CC6)nn5)CC4)C3)nc1)=N[C@@H](Cc1ncco1)c1nnc(C)n1-2` [I-347]: the GI50 (in the assay with VCaP cells; in assay [1]; in assay [2]; in the assay with T47D cells) was under 500 nM throughout.
As to `Cc1sc2c(c1C)C(c1ccc(N3CC4(C3)CC3(CCN(c5ccc(C(=O)N[C@H]6CC[C@H](Oc7ccc(C#N)c(Cl)c7)CC6)nn5)CC3)C4)cc1)=N[C@@H](Cc1ncco1)c1nnc(C)n1-2` [I-348], the GI50 with VCaP cells is under 500 nM; in assay [1], under 500 nM; in assay [2], over 3000 nM; with T47D cells, under 500 nM.
On to `Cc1sc2c(c1C)C(c1ccc(O[C@H]3C[C@@]4(CCCN(c5ccc(C(=O)N[C@H]6CC[C@H](Oc7ccc(C#N)c(Cl)c7)CC6)nn5)C4)C3)cc1)=N[C@@H](C)c1nnc(C)n1-2` [I-349], for which the GI50 with VCaP cells was 500 to 1500 nM; in assay [1] it was under 500 nM; in assay [2], over 3000 nM; with T47D cells it was 500 to 1500 nM.
As to `Cc1sc2c(c1C)C(c1ccc(O[C@H]3C[C@]4(CCCN(c5ccc(C(=O)N[C@H]6CC[C@H](Oc7ccc(C#N)c(Cl)c7)CC6)nn5)C4)C3)cc1)=N[C@@H](C)c1nnc(C)n1-2` [I-350], the GI50 was under 500 nM in the assay on VCaP cells, under 500 nM in assay [1], over 3000 nM in assay [2] and 500 to 1500 nM in the assay with T47D cells.
Consider `Cc1sc2c(c1C)C(c1ccc(C[C@H]3C[C@@]4(CCCN(c5ccc(C(=O)N[C@H]6CC[C@H](Oc7ccc(C#N)c(Cl)c7)CC6)nn5)C4)C3)cc1)=N[C@@H](C)c1nnc(C)n1-2` [I-351], for which the GI50 in the assay with VCaP cells is 1500 to 3000 nM; in assay [1] it was under 500 nM; in assay [2] it was over 3000 nM; in the assay on T47D cells, over 3000 nM.
`Cc1sc2c(c1C)C(c1ccc(C[C@H]3C[C@]4(CCCN(c5ccc(C(=O)N[C@H]6CC[C@H](Oc7ccc(C#N)c(Cl)c7)CC6)nn5)C4)C3)cc1)=N[C@@H](C)c1nnc(C)n1-2` [I-352]: the GI50 was under 500 nM in the assay on VCaP cells, under 500 nM in assay [1], over 3000 nM in assay [2] and over 3000 nM with T47D cells.
`Cc1sc2c(c1C)C(c1ccc(CO[C@H]3C[C@@]4(CCCN(c5ccc(C(=O)N[C@H]6CC[C@H](Oc7ccc(C#N)c(Cl)c7)CC6)nn5)C4)C3)cc1)=N[C@@H](C)c1nnc(C)n1-2` [I-353]: the GI50 with VCaP cells is under 500 nM; in assay [1], under 500 nM; in assay [2], over 3000 nM; with T47D cells, 500 to 1500 nM.
Consider `Cc1sc2c(c1C)C(c1ccc([C@H]3C[C@@H](C[C@@H]4CCCN(c5ccc(C(=O)N[C@H]6CC[C@H](Oc7ccc(C#N)c(Cl)c7)CC6)nn5)C4)C3)cc1)=N[C@@H](Cc1ncco1)c1nnc(C)n1-2` [I-355], for which the GI50 is 1500 to 3000 nM in the assay on VCaP cells, over 3000 nM in assay [1], over 3000 nM in assay [2] and 1500 to 3000 nM in the assay on T47D cells.
`Cc1sc2c(c1C)C(c1ccc([C@H]3C[C@@H](C[C@H]4CCCN(c5ccc(C(=O)N[C@H]6CC[C@H](Oc7ccc(C#N)c(Cl)c7)CC6)nn5)C4)C3)cc1)=N[C@@H](Cc1ncco1)c1nnc(C)n1-2` [I-356]: the GI50 (in the assay on VCaP cells; in assay [1]; in assay [2]; in the assay on T47D cells) was over 3000 nM throughout.
Turning to `Cc1sc2c(c1C)C(c1ccc([C@H]3C[C@H](C[C@@H]4CCCN(c5ccc(C(=O)N[C@H]6CC[C@H](Oc7ccc(C#N)c(Cl)c7)CC6)nn5)C4)C3)cc1)=N[C@@H](Cc1ncco1)c1nnc(C)n1-2` [I-357], the GI50 (with VCaP cells; in assay [1]; in assay [2]; in the assay on T47D cells) was under 500 nM throughout.
Take `Cc1sc2c(c1C)C(c1ccc([C@H]3C[C@H](C[C@H]4CCCN(c5ccc(C(=O)N[C@H]6CC[C@H](Oc7ccc(C#N)c(Cl)c7)CC6)nn5)C4)C3)cc1)=N[C@@H](Cc1ncco1)c1nnc(C)n1-2` [I-358]: the GI50 is under 500 nM in the assay with VCaP cells, under 500 nM in assay [1], over 3000 nM in assay [2] and under 500 nM with T47D cells.
Take `Cc1sc2c(c1C)C(c1ccc(C(C)(C)N3CCC4(CCCN(c5ccc(C(=O)N[C@H]6CC[C@H](Oc7ccc(C#N)c(Cl)c7)CC6)nn5)C4)C3)cc1)=N[C@@H](Cc1ncco1)c1nnc(C)n1-2` (stereo partly shown) [I-359]: the GI50 (with VCaP cells; in assay [1]; in assay [2]; with T47D cells) was over 3000 nM in each case.
Regarding `Cc1sc2c(c1C)C(c1ccc(O[C@@H]3CC[C@]4(CCCN(c5ccc(C(=O)N[C@H]6CC[C@H](Oc7ccc(C#N)c(Cl)c7)CC6)nn5)C4)C3)cn1)=N[C@@H](Cc1ncco1)c1nnc(C)n1-2` [I-360], the GI50 (in the assay on VCaP cells; in assay [1]; in assay [2]; with T47D cells) was under 500 nM throughout.
For `Cc1sc2c(c1C)C(c1ccc(O[C@H]3CC[C@@]4(CCCN(c5ccc(C(=O)N[C@H]6CC[C@H](Oc7ccc(C#N)c(Cl)c7)CC6)nn5)C4)C3)cn1)=N[C@@H](Cc1ncco1)c1nnc(C)n1-2` [I-361], the GI50 with VCaP cells is under 500 nM; in assay [1], under 500 nM; in assay [2], over 3000 nM; with T47D cells it was 500 to 1500 nM.
